According to ChEMBL document CHEMBL3352554, “Synthesis and structure-activity relationships of 4-fluorophenyl-imidazole p38α MAPK, CK1δ and JAK2 kinase inhibitors” (Bioorg Med Chem Lett, 2014):
Calls of active or inactive are those of the source. No cut-off for these calls is given here.

How the values were obtained:
[1] = molecular target: Tyrosine-protein kinase JAK2 (Homo sapiens, UniProt O60674); assay: Inhibition of JAK2 (unknown origin) by radiometric assay
[2] = molecular target: T1, Mitogen-activated protein kinase 14 (Homo sapiens, UniProt Q16539); assay: Inhibition of p38alpha MAPK (unknown origin) by radiometric assay
[3] = molecular target: T2, Tyrosine-protein kinase JAK3 (Homo sapiens, UniProt P52333); assay: Inhibition of JAK3 (unknown origin) by radiometric assay
T2 sequence (P52333 whole entry): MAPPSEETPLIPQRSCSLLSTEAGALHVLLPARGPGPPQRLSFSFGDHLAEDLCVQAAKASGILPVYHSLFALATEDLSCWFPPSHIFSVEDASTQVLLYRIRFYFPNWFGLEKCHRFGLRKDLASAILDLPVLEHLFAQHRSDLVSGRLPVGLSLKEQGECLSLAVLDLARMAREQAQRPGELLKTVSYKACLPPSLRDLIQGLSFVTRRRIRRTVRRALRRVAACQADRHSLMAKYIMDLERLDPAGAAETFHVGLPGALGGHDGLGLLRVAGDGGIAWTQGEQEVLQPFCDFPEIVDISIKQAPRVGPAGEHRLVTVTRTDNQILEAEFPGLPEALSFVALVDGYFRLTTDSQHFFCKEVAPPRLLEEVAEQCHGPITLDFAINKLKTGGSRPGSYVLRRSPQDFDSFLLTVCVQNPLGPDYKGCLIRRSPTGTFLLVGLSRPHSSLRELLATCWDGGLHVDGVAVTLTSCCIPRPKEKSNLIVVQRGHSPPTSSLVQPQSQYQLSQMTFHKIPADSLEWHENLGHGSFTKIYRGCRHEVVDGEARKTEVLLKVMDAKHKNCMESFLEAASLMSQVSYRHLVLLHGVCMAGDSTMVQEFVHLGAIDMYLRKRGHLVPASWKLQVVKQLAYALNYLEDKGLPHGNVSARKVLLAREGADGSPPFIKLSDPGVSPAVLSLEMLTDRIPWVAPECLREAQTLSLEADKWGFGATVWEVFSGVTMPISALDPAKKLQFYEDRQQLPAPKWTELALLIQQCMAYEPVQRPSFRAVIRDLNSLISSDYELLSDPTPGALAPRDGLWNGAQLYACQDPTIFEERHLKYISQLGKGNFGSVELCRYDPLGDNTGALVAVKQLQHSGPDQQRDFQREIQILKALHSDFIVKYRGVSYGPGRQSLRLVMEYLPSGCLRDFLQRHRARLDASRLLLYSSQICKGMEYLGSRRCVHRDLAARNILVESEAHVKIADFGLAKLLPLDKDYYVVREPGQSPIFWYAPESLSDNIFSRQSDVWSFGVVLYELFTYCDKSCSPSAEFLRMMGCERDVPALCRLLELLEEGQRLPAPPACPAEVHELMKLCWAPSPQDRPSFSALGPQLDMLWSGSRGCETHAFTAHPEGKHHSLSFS

[4] = molecular target: Casein kinase I isoform delta (Homo sapiens, UniProt P48730); assay: Inhibition of CK1-delta (unknown origin) by radiometric assay
[5] = molecular target: Tyrosine-protein kinase JAK1 (Homo sapiens, UniProt P23458); assay: Inhibition of JAK1 (unknown origin) by radiometric assay
[6] = molecular target: T1, Mitogen-activated protein kinase 14; assay: Inhibition of p38alpha MAPK in TNF-alpha-induced HUVEC assessed as downregulation of IL-6 mRNA expression at 10 uM incubated for 4 hrs by RT-PCR analysis; format: cell-based
[7] = molecular target: T1, Mitogen-activated protein kinase 14; assay: Inhibition of p38alpha MAPK in TNF-alpha-induced HUVEC assessed as downregulation of COX-2 mRNA expression at 10 uM incubated for 4 hrs by RT-PCR analysis; format: cell-based
[8] = molecular target: T1, Mitogen-activated protein kinase 14; assay: Inhibition of p38alpha MAPK in TNF-alpha-induced HUVEC assessed as downregulation of VCAM-1 mRNA expression at 10 uM incubated for 4 hrs by RT-PCR analysis; format: cell-based
Homo sapiens [9] = species on record: Homo sapiens; assay: Selectivity ratio of IC50 for p38alpha MAPK (unknown origin) to IC50 for JAK2 (unknown origin)
Homo sapiens [10] = species on record: Homo sapiens; assay: Selectivity ratio of IC50 for p38alpha MAPK (unknown origin) to IC50 for CK1-delta (unknown origin)

Tyrosine-protein kinase JAK1, sequence (P23458 whole entry): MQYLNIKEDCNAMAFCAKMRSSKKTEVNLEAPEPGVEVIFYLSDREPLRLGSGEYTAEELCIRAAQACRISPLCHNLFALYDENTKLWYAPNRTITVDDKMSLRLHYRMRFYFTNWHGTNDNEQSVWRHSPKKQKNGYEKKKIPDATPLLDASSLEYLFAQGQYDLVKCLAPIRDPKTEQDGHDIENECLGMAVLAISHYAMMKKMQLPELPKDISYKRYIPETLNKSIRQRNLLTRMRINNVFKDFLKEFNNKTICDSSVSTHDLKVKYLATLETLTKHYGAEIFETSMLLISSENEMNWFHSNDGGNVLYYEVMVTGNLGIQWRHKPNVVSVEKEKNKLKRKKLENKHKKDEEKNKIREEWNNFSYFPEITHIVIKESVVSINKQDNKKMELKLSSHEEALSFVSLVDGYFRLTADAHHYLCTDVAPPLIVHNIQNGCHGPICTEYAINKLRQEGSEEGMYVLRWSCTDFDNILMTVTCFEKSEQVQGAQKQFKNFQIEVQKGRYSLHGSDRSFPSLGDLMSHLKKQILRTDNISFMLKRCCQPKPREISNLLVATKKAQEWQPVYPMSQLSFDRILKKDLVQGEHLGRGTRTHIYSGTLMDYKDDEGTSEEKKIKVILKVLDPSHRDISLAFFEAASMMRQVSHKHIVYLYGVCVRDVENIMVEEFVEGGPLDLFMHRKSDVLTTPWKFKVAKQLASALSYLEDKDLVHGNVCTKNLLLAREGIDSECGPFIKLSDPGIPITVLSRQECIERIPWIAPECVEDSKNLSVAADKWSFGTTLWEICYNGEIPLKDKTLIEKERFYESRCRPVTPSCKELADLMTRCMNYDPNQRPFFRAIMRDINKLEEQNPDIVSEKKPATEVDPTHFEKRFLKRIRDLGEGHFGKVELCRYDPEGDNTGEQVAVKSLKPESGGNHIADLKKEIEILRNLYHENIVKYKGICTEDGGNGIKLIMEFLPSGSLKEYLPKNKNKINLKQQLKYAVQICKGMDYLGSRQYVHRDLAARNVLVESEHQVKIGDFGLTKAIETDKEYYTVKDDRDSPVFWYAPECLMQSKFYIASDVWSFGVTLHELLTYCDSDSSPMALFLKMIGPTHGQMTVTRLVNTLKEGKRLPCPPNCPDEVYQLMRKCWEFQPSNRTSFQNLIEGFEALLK
T1 sequence (Q16539 whole entry): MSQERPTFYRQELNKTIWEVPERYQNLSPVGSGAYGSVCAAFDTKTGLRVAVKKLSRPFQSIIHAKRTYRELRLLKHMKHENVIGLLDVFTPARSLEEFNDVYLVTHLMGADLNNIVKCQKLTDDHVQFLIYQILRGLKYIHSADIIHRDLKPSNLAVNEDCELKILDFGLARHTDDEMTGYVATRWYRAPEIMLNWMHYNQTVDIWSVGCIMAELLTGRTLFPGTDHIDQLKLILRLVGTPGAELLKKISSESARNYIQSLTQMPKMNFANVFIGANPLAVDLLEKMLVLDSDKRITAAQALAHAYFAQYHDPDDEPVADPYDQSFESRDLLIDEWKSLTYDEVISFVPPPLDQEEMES
Casein kinase I isoform delta, sequence (P48730 whole entry, canonical isoform): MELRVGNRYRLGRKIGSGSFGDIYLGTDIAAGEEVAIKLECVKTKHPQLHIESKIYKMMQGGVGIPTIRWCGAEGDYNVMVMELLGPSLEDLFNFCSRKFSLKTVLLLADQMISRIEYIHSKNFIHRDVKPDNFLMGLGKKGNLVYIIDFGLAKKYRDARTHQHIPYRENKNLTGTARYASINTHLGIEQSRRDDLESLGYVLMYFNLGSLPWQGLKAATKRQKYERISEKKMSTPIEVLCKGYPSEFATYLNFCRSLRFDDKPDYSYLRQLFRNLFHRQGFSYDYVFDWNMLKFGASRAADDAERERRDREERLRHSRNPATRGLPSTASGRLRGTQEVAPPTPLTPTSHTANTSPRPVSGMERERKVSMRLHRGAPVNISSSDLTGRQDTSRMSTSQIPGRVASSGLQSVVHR
Tyrosine-protein kinase JAK2, sequence (O60674 whole entry): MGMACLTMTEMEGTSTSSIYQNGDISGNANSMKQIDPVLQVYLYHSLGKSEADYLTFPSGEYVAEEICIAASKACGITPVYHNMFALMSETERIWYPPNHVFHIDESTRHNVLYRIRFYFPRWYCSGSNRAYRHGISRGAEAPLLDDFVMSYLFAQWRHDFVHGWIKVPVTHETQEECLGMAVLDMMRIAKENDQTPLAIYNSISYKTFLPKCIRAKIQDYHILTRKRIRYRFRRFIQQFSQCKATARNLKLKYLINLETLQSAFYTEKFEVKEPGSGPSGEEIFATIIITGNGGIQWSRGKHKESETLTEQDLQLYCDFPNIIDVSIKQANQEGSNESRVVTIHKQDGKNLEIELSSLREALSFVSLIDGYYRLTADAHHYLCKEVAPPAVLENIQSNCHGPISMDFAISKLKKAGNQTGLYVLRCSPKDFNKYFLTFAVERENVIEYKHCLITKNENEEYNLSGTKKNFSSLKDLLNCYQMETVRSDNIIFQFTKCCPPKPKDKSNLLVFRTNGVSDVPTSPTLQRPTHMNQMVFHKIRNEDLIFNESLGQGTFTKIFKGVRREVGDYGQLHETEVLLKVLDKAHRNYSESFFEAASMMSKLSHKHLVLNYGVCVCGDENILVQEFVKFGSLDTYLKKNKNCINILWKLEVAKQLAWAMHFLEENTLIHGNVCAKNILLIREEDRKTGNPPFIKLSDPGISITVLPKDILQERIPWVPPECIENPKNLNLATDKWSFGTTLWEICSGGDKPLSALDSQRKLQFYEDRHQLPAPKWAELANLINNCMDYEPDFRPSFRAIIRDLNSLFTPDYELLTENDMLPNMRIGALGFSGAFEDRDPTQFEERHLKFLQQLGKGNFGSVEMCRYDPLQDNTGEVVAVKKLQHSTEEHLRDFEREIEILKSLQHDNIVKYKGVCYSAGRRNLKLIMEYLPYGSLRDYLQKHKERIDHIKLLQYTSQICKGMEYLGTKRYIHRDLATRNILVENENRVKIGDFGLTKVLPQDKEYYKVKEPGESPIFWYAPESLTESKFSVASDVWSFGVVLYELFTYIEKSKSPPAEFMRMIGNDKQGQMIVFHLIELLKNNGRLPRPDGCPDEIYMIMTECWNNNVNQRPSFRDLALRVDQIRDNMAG

Row | SMILES | IC50 [1] | IC50 [2] | IC50 [3] | IC50 [4] | IC50 [5] | inhibition [6] | inhibition [7] | inhibition [8] | Ratio IC50 (Homo sapiens [9]) | Ratio IC50 (Homo sapiens [10])
1 | CSc1nccc(-c2c(-c3ccc(F)cc3)nc3nc(-c4cn(CC(=O)O)nn4)ccn23)n1 | > 100 µM | 0.25 µM | > 100 µM | > 100 µM | > 100 µM | – | – | – | – | –
2 | C#Cc1ccc(-c2nc(-c3ccc(F)cc3)c(-c3ccnc(SC)n3)[nH]2)cc1 | > 100 µM | 82.1 µM | > 100 µM | 66.3 µM | > 100 µM | – | – | – | – | –
3 | Oc1ccc(-c2nc(-c3ccncc3)c(-c3ccc(F)cc3)[nH]2)cc1 [SB-202190] | > 100 µM | – | > 100 µM | 0.188 µM | > 100 µM | – | – | – | – | –
4 | Cn1c(-c2cn(-c3cccc(C(=O)O)c3)nn2)nc(-c2ccc(F)cc2)c1-c1ccncc1 | > 100 µM | – | > 100 µM | 0.089 µM | > 100 µM | – | – | – | – | –
5 | Cn1c(-c2cn([C@@H]3[C@@H](O)[C@H](O)[C@@H](CO)O[C@H]3O)nn2)nc(-c2ccc(F)cc2)c1-c1ccncc1 | > 100 µM | 1.02 µM | > 100 µM | 0.439 µM | > 100 µM | – | – | – | – | –
6 | C[C@H](Nc1nccc(-c2c(-c3ccc(F)cc3)nc3nc(N)ccn23)n1)c1ccccc1 | > 100 µM | 0.0085 µM | > 100 µM | > 100 µM | > 100 µM | – | – | – | – | –
7 | Cn1c(-c2c[nH]nn2)nc(-c2ccc(F)cc2)c1-c1ccncc1 | > 100 µM | 0.21 µM | > 100 µM | 0.202 µM | > 100 µM | – | – | – | – | –
8 | Cn1c(-c2cn(CCP(=O)(O)O)nn2)nc(-c2ccc(F)cc2)c1-c1ccncc1 | > 100 µM | – | > 100 µM | 0.225 µM | > 100 µM | – | – | – | – | –
9 | C#Cc1ccc(-c2nc(-c3ccc(F)cc3)c(-c3cc[nH]c(=O)c3)[nH]2)cc1 | 14.3 µM | 9.39 µM | > 100 µM | 19.9 µM | > 10 µM | – | – | – | – | –
10 | O=C(O)c1cc(-c2nc(-c3ccc(F)cc3)c(-c3cc[nH]c(=O)c3)[nH]2)ccc1O | 3.71 µM | 6.81 µM | 21.4 µM | 21.2 µM | > 100 µM | inactive | inactive | inactive | – | –
11 | CCOP(=O)(CCn1cc(-c2ccc(-c3nc(-c4ccc(F)cc4)c(-c4cc[nH]c(=O)c4)[nH]3)cc2)nn1)OCC | 4.2 µM | > 100 µM | 37.4 µM | 44.3 µM | 23.9 µM | – | – | – | – | –
12 | Cn1c(-c2cn(-c3ccc(C(=O)O)cc3)nn2)nc(-c2ccc(F)cc2)c1-c1ccncc1 | > 100 µM | 0.166 µM | > 100 µM | 1.6 µM | > 100 µM | – | – | – | – | –
13 | O=c1cc(-c2[nH]c(-c3ccc(-c4cn(CCP(=O)(O)O)nn4)cc3)nc2-c2ccc(F)cc2)cc[nH]1 | – | > 100 µM | > 100 µM | 10.8 µM | > 100 µM | – | – | – | – | –
14 | CSc1nccc(-c2[nH]c(-c3ccc(O)cc3)nc2-c2ccc(F)cc2)n1 | > 100 µM | 0.0955 µM | 78.3 µM | 5.96 µM | > 100 µM | – | – | – | – | –
15 | O=c1cc(-c2[nH]c(-c3ccc(O)cc3)nc2-c2ccc(F)cc2)cc[nH]1 | 0.911 µM | 4.96 µM | 14.4 µM | 19.7 µM | 54.6 µM | inactive | inactive | inactive | – | –
16 | CSc1nccc(-c2c(-c3ccc(F)cc3)nc3nc(N)ccn23)n1 | > 100 µM | 0.12 µM | > 100 µM | > 100 µM | > 100 µM | – | – | – | – | –
17 | C#Cc1ccn2c(-c3ccnc(SC)n3)c(-c3ccc(F)cc3)nc2n1 | > 100 µM | 2.51 µM | > 100 µM | > 100 µM | > 100 µM | – | – | – | – | –
18 | O=c1cc(-c2[nH]c(C3CCNCC3)nc2-c2ccc(F)cc2)cc[nH]1 | 6.62 µM | 1.14 µM | 11.8 µM | 12 µM | 16.9 µM | inactive | inactive | inactive | – | –

Continued, values first:

Row | IC50 [1] | IC50 [2] | IC50 [3] | IC50 [4] | IC50 [5] | inhibition [6] | inhibition [7] | inhibition [8] | Ratio IC50 (Homo sapiens [9]) | Ratio IC50 (Homo sapiens [10]) | SMILES
19 | 0.061 µM | 2.53 µM | 0.783 µM | 12.1 µM | 1.68 µM | – | – | – | – | – | O=c1cc(-c2[nH]c(-c3ccc(-c4nnn[nH]4)cc3)nc2-c2ccc(F)cc2)cc[nH]1
20 | 0.5 µM | 18.6 µM | 10.6 µM | 17.9 µM | > 10 µM | – | – | – | – | – | O=c1cc(-c2[nH]c(-c3ccc(-c4cn(CCO)nn4)cc3)nc2-c2ccc(F)cc2)cc[nH]1
21 | > 100 µM | 12 µM | > 100 µM | 21.4 µM | > 100 µM | – | – | – | – | – | CCOP(=O)(CCn1cc(-c2ccn3c(-c4ccnc(SC)n4)c(-c4ccc(F)cc4)nc3n2)nn1)OCC
22 | > 100 µM | – | > 100 µM | 0.437 µM | > 100 µM | – | – | – | – | – | Cn1c(-c2cn([C@H]3CCNC[C@@H]3F)nn2)nc(-c2ccc(F)cc2)c1-c1ccncc1
23 | 0.352 µM | 32.9 µM | 3.03 µM | 24.5 µM | 80.1 µM | – | – | – | – | – | CCOC(=O)Cn1cc(-c2ccc(-c3nc(-c4ccc(F)cc4)c(-c4cc[nH]c(=O)c4)[nH]3)cc2)nn1
24 | > 100 µM | > 100 µM | > 100 µM | > 100 µM | > 100 µM | – | – | – | – | – | CSc1nccc(-c2c(-c3ccc(F)cc3)nc3nc(-c4cn(CCP(=O)(O)O)nn4)ccn23)n1
25 | 0.274 µM | 2.94 µM | 3.9 µM | 24.8 µM | 14.1 µM | inactive | inactive | inactive | 10 | 10 | O=C(O)c1ccc(-c2nc(-c3ccc(F)cc3)c(-c3cc[nH]c(=O)c3)[nH]2)cc1
26 | > 100 µM | 2.48 µM | > 100 µM | 3.1 µM | > 100 µM | – | – | – | – | – | CCOP(=O)(CCn1cc(-c2nc(-c3ccc(F)cc3)c(-c3ccncc3)n2C)nn1)OCC
27 | > 100 µM | 0.783 µM | > 100 µM | 0.24 µM | > 100 µM | – | – | – | – | – | Cn1c(-c2cn(CCO)nn2)nc(-c2ccc(F)cc2)c1-c1ccncc1
